Data: article PMC10686834, “Targeting myeloid chemotaxis to reverse prostate cancer therapy resistance” (Nature, 2023)

Experiments:
[1] = test system: circulating CXCL1, CXCL2, CXCL5, CXCL6, CXCL7 and CXCL8; test: Circulating cytokine analyses (Luminex, ELISA) in patient serum; format: in vivo, human; conditions: serial serum samples
Description: Serum samples were collected at baseline, on day 1 of every cycle, and on cycle 1 day 15. CXCL2, CXCL5, CXCL6, CXCL7 and CXCL8 were measured in patient serum (diluted 1:2 except for CXCL7, which was diluted 1:200), then analysed using R&D Systems Luminex discovery assays using the Luminex 200 and interpolated using a five-parameter logistic curve fit. CXCL1 was measured in neat patient serum using the R&D Systems human GROα Quantikine ELISA using the Perkin Elmer Envision 2103 Multilabel plate reader and interpolated using linear regression. The Luminex and ELISA assays were validated to good clinical practice compliance by The ICR and included quality control samples of serum, unspiked or spiked with recombinant protein standard, from healthy volunteer serum in every analytical run. A list of the ELISA reagents is provided in Supplementary Table 9.

[2] = test system: plasma protein; parameters: method as in AZD5069 Investigator Brochure (IB); conditions: ref AZD5069 Investigator Brochure (IB); cited from earlier work
[3] = parameters: method as in AZD5069 Investigator Brochure (IB); conditions: human mass balance study NCT01332903; ref AZD5069 Investigator Brochure (IB); cited from earlier work
[4] = test system: P-glycoprotein (P-gp); parameters: method as in AZD5069 Investigator Brochure (IB); conditions: at concentrations of up to 100 μmol/L; ref AZD5069 Investigator Brochure (IB); cited from earlier work
[5] = test system: CYP2D6; parameters: method as in AZD5069 Investigator Brochure (IB); conditions: at concentrations of up to 100 μmol/L; ref AZD5069 Investigator Brochure (IB); cited from earlier work
[6] = test system: CYP2E1; parameters: method as in AZD5069 Investigator Brochure (IB); conditions: at concentrations of up to 100 μmol/L; ref AZD5069 Investigator Brochure (IB); cited from earlier work
[7] = test system: CYP2C9; parameters: method as in AZD5069 Investigator Brochure (IB); conditions: ref AZD5069 Investigator Brochure (IB); cited from earlier work
[8] = parameters: method as in AZD5069 Investigator Brochure (IB); conditions: ref AZD5069 Investigator Brochure (IB); cited from earlier work
[9] = test system: healthy volunteers; parameters: method as in AZD5069 Investigator Brochure (IB); conditions: ref AZD5069 Investigator Brochure (IB), cited from earlier work
[10] = parameters: method as in AZD5069 Investigator Brochure (IB); conditions: ref AZD5069 Investigator Brochure (IB), cited from earlier work
[11] = test system: gastric emptying and intestinal motility; conditions: rat, ref AZD5069 Investigator Brochure (IB), cited from earlier work
[12] = test system: monkey; conditions: in vivo; cited from earlier work
[13] = test system: monkey; conditions: in vivo; cited from earlier work; remark: listed apart in the source
[14] = test system: patients with bronchiectasis; conditions: cited from earlier work
[15] = bronchiectasis study NCT01255592, on AZD5069, ref AZD5069 Investigator Brochure (IB)

C[C@@H](Oc1cc(NS(=O)(=O)N2CCC2)nc(SCc2cccc(F)c2F)n1)[C@@H](O)CO [AZD5069]
levels of circulating CXCL1, CXCL2 and CXCL8 after treatment [1]: increased in a dose-dependent manner | levels of circulating CXCL5, CXCL6 and CXCL7 after treatment [1]: did not consistently increase | bound to plasma protein [2]: > 96% | phase II glucose conjugate metabolite in urine [3]: < 5.3 % of dose | inhibition of P-glycoprotein (P-gp) [4]: not an inhibitor | inhibition of CYP2D6 [5]: not an inhibitor | inhibition of CYP2E1 [6]: not an inhibitor | IC50 [7]: ~53.8 µM | phototoxic potential [8]: low risk for phototoxic potential | adverse effects considered to be related to treatment ([9]; 202 healthy volunteers): no clinically significant adverse effects | doses with a reduction in blood neutrophil counts ([9]; healthy volunteers): ≥ 5.45 mg | tmax ([10]; fasting conditions): ~ 2 hours | initial half-life ([10]; plasma): 4 h | terminal half-life ([10]; plasma): 11 h | apparent volume of distribution [10]: ~ 53 L | food effect [10]: reduces the peak concentration but total exposure (AUC) is unchanged | fraction of the drug renally excreted [10]: Less than 10% | total plasma clearance [10]: ~ 8 L/h | systemic exposure versus dose ([10]; single and repeated BD dosing): proportional to the dose | No Observed Effect Level (NOEL) ([11]; gastric emptying and intestinal motility): 60 mg/kg | dose level with inhibition of gastric emptying and intestinal motility [11]: 350 mg/kg | tolerated single doses (maximum feasible dose) [12]: ≤ 350 mg/kg BD | NOAEL [13]: 262.5 mg/kg BD | mean reduction in blood neutrophils ([14]; bronchiectasis study NCT01255592, 80 mg BD, ref AZD5069 Investigator Brochure (IB)): approximately 16% | reduction in sputum neutrophils compared with placebo ([14]; bronchiectasis study NCT01255592, after 4 weeks’ treatment, ref AZD5069 Investigator Brochure (IB)): 69% | patients reporting adverse events (AEs) [14, 15]: 23 of 26 | patients who withdrew because of AEs [14, 15]: 5 | infections reported ([14]; in vivo): 34.6%
